What was measured:
wt-BTK = wt-BTK (Homo sapiens (Human), UniProt Q06187); assay: Binding kinetics measurements (Surface Plasmon Resonance) on wt-BTK; details: for Tau (h) wt-BTK (Act): target residence time, SPR
Method in brief: (§1)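 SPR, single cycle kinetics: 5 injections, 3.16-316 nM, 30 μl/min (avoids mass transport limitation), 22° C, 1% DMSO buffer. Protein immobilized at 4° C on streptavidin chip, biocytin block. Blank run first; reference channel and buffer curves subtracted.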

BTK C481S = BTK C481S (Homo sapiens (Human), UniProt Q06187, C481S); assay: Binding kinetics measurements (Surface Plasmon Resonance) on BTK C481S; details: for Tau (h) BTK C418S (Act): target residence time for BTK C481S, SPR
Sequence of BTK C481S (Q06187 whole entry C481S): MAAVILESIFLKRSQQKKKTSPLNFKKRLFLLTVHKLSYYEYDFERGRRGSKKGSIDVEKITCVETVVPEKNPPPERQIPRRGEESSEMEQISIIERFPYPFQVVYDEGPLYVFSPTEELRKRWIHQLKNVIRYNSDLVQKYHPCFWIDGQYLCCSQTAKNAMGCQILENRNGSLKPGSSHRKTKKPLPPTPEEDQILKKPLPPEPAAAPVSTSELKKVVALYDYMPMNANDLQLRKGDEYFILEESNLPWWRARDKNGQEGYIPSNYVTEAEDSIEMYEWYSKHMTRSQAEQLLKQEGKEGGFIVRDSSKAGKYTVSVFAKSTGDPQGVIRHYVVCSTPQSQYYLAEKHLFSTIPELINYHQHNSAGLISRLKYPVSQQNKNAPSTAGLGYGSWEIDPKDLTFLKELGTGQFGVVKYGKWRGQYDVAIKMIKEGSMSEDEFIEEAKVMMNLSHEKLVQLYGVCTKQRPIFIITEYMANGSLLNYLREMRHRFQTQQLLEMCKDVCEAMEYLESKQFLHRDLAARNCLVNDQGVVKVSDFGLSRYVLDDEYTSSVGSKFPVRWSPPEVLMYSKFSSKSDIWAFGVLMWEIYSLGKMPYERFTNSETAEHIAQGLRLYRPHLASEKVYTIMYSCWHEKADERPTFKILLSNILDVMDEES
Method in brief: as §1

BTK T316A = BTK T316A (Homo sapiens (Human), UniProt Q06187, T316A); assay: Binding kinetics measurements (Surface Plasmon Resonance) on BTK T316A; details: for Tau (h) BTK T316A (Act): target residence time, SPR
Sequence of BTK T316A (Q06187 whole entry T316A): as the sequence (Q06187 whole entry C481S) above, with T316A, S481C counted along it
Method in brief: as §1

BTK T474I = BTK T474I (Homo sapiens (Human), UniProt Q06187, T474I); assay: Binding kinetics measurements (Surface Plasmon Resonance) on BTK T474I; details: for Tau (h) BTK T474I (Act): target residence time, SPR
Sequence of BTK T474I (Q06187 whole entry T474I): as the sequence (Q06187 whole entry C481S) above, with T474I, S481C counted along it
Method in brief: as §1

BTK T474S = BTK T474S (Homo sapiens (Human), UniProt Q06187, T474S); assay: Binding kinetics measurements (Surface Plasmon Resonance) on BTK T474S; details: for residence time: read-out: Tau (h) BTK T474S (Act), target residence time
Sequence of BTK T474S (Q06187 whole entry T474S): as the sequence (Q06187 whole entry C481S) above, with T474S, S481C counted along it
Method in brief: as §1

[1] = test system: wt-BTK, BTK C481S, BTK T474I and BTK C481S/T474I expressing 293 cells; assay: Cell based washout, pBTK (Tyr223) Western blot; parameters: species or system human; details: 1000 nM compound 2 hours, washed twice, harvested 0-24 hours
Protocol: In vitro cellular (mutant) BTK inhibition, and inhibitor wash-out Generation of human wt-BTK, BTK C481S, BTK T474I, and BTK C481S/T474I expressing GripTite 293 MSR cells.
GripTite 293 MSR cells (Thermo Fisher, cat. no. R79507), here after referred to as 293 cells, were cultured in DMEM/F-12, GIutaMAX™ supplement medium (Thermo Fisher cat. no. 10565018) supplemented with 1% Penicilline/Streptomycine (Thermo Fisher cat. no. 15140122) 10% fetal bovine serum (Biowest, cat. no. Si181 0-500), 1× MEM Non-Essential Amino Acids (Thermo Fisher cat. no. 11140050) and 50 μg/ml Geneticin (Thermo Fisher cat. no. 10131035). Cells were transfected, with pEF6/V5-HisB (Thermo Fisher cat. no. V96120) expression vectors containing either full-length wildtype-BTK (canonical sequence NM_000061), BTK C481 S, BTK T474I or BTK C481 S/T474I (BaseClear) using Lipofectamine™ 3000 (Invitrogen). Because the stop codon at the end of the coding sequence of BTK has been conserved, the His-tag present in the expression vector is not being used. Immediately after transfection, cells were cultured in medium without Geneticin, and after 24 hours 50 μg/ml geneticin was added. 48 hours after transfection, medium was removed and replaced by medium containing both geneticin (50 μg/ml) and blasticidin (10 μg/ml) S HCl (Thermo Fisher, cat. no. A1113903). The resulting transfectants were cultured under blasticidin selection pressure for 18-35 passages to obtain stable wild-type BTK (wt-BTK), BTK C481S, BTK T474I, and BTK C481 S/T474I expressing cell pools. Stability of the (mutant) BTK expression in the 293 cell pools was confirmed by poly-acrylamide gel electrophoresis followed by Western blotting (FIG. 1A). […] For both experiments 10 μg of protein was separated on 4-12% Bis-Tris polyacrylamide gels.
Wild-type BTK, BTK C481S, BTK T474I or BTK C481 S/T474I expressing 293 cells were lysed in lysis buffer supplemented with protease inhibitors (Merck, cat. no. P8340) and phosphatase inhibitors (Thermo Fisher, cat. no. 78426). The protein concentration was determined with a Pierce BCA protein assay kit (Thermo Fisher, cat. no. 23227). Lysates were diluted to a concentration of 1 μg/μl in NuPage® LDS Sample Buffer (Thermo Fisher, cat. no. NP0008) with 167 mM DTT (Acros Organics, cat. no. 10686841) and denatured for 5 minutes at 95° C. The samples (10 μg protein) were, together with a pre stained protein ladder (Thermo Fisher, cat. no. 26616), separated on 4-12% Bis-Tris polyacrylamide gels (Thermo Fisher, cat. no. NP0324BOX). Separated protein was subsequently transferred, in methanol free transfer buffer (Thermo Fisher, cat. no. 35045), to a nitrocellulose membrane (Thermo Fisher, cat. no. 88018). Blots were first immunologically stained with phospho-BTK (Tyr223) rabbit mAb (Cell Signaling, cat. no. 5082S), and beta-actin rabbit mAb (Cell Signaling, cat. no. 4967S), followed by peroxidase conjugated goat anti-rabbit IgG (Cell Signaling, cat. no. 7074S). Afterwards, antibodies were removed using Western-blot stripping buffer (Thermo Fisher cat. no. 46428) and staining was repeated with a (total-)BTK mouse mAb (Abnova, cat. no. MAB0798), followed by peroxidase conjugated horse anti-mouse IgG (Cell Signaling, cat. no. 7076S). For all blots the colour development was performed with ECL horseradish peroxidase substrate (BioRad, cat. no. 170-5060).
Wild-type BTK, BTK C481S, BTK T474I, and BTK C481 S/T474I expressing 293 cells were growing exponentially when seeded in culture medium, without blasticidin, at a density of 2,000,000 cells/4 ml/well, in 25 cm^2 cell culture flasks (Greiner Bio-one, cat. no. 690175). Flasks were placed in a 37° C. C02-incubator for 16-24 hours after which 1 ml culture medium containing 5000 nM of the compound of Example 46 or Example 201, or Example 184, or Example 204, or Example 45 or (+/−) Loxo-305, or 0.05% DMSO (no compound) was added. 2 hours after addition of the inhibitors (0h) cells are either collected or washed twice with 5 ml culture medium. […]

[2] = binding affinity by Surface Plasmon Resonance (SPR)

Sequence of wt-BTK (Q06187 whole entry): as the sequence (Q06187 whole entry C481S) above, with S481C counted along it

Row | SMILES | target residence time on wild-type-BTK (wt-BTK; result in words) | Tau (h) wt-BTK (Act) (wt-BTK) | target residence time on BTK C481 mutants (BTK C481S; result in words) | Tau (h) BTK C418S (Act) (BTK C481S) | target residence time on BTK T316 mutants (BTK T316A; result in words) | Tau (h) BTK T316A (Act) (BTK T316A) | target residence time on BTK T474 mutants (T474I) (BTK T474I; result in words) | Tau (h) BTK T474I (Act) (BTK T474I) | residence time (BTK T474S) | target residence time on BTK T474 mutants (T474S) (BTK T474S; result in words) | level of phosphorylated BTK (pBTK (Tyr223)) in wash-out experiments ([1]; result in words) | Kd (wt-BTK; [2]) | Kd (BTK C481S; [2]) | Kd (BTK T316A; [2]) | Kd (BTK T474I; [2]) | Kd (BTK T474S; [2]) | time for which level of phosphorylated BTK (pBTK (Tyr223)) is prohibited or reduced after wash-out ([1]; also cell lines expressing mutant BTK)
1 | COc1ccc(F)cc1C(=O)NCc1ccc(-c2nn([C@@H](C)C(F)(F)F)c(N)c2C(N)=O)cc1 [pirtobrutinib, reference compound] | short target residence times | 0.45 h | short target residence times | 0.91 h | short target residence times | 0.17 h | short target residence times | 0.03 h | 1.25 h | short target residence times | does not prohibit or reduce the level of phosphorylated BTK | – | – | – | – | – | –
2 | Nc1ncc2c3c1c(-c1ccc(C(=O)Nc4cc(C(F)(F)F)ccn4)cc1)nn3[C@@H]1CCC[C@H](C1)NC(=O)CCCCC/C=C/2 [Example 46] | – | 4.87 h | – | 9.36 h | – | 3.23 h | – | 2.58 h | 4.8 h | – | – | < 5 nM | < 5 nM | < 5 nM | < 2 nM | < 3 nM | at least 6 hours
